Results published in patent US8889902B2, “Acetylsalicylic acid salts” (priority 2009, dated 2014).
Several values for one entry are separate records, joined by “and”; a condition that tells them apart may be missing. Equal values may be shown once. Marks after values point to notes of the source that are not given here.

Columns and labels:
[1] = tested on: response to thermal irritation (hot plate); test: Mouse hot plate test; format: in vivo, mice
[2] = tested on: hyperthermia induced by intramuscular injection of pyrogenal; test: Antipyretic activity, pyrogenal hyperthermia (curative mode); format: in vivo, rats
Procedure: The antipyretic effect of test substances in therapeutic (curative) mode was investigated on 48 rats with body mass 182-205 g, with hyperthermia induction by injecting pyrogenal in dose 100 μg (Shwarz G Y, Syubaev R D, Vedomosti NCEG lekarstvennyh sredstv MZ RF 2000; 1:44-50 (Rus). Test substances were given p.o. 2 hours after injection of pyrogenal immediately after the recording of elevated body temperature. Rectal temperature was measured by electric thermometer TERMO before the i.m. injection of pyrogenal (baseline temperature), at the peak of hyperthermia (pyrogenal control) and 30 min. after treatment with test substance, i.e., 2½ hours after the injection of pyrogenal. Ambient temperature in laboratory was kept at 20-22° C.

[3] = tested on: adjuvant arthritis induced by Freund's adjuvant; test: Adjuvant arthritis: paw volume and ankle joint; format: in vivo, Wistar rats; settings: for Prevention %, paw volume Day 14 / Prevention %, paw volume Day 28: vs AdA
Source text: Our experiments were scheduled to test the influence of MASA on the progress of adjuvant arthritis in comparison with MD and ASA. […] Each standard cage housed 7 rats with unlimited access to drinking water and granulated standard feed. […] All efforts were made to minimize animal suffering and to reduce the number of animals used. A modified standard procedure for inducting and evaluating the progress of chronic adjuvant arthritis was used (Bellavite P, Ortolani R, Conforti A, Immunology and Homeopathy. 3. Experimental Studies on Animal Models, Advance Access Publication 2.05, 2006, 171-186). […] The solutions of test substances were prepared ex tempore. […] Test solutions were introduced to animal p.o. by catheter into the stomach. […] The effects of test substances were evaluated using the following criteria: The oedema, i.e. the volume of hind paw was measured by oncometer. The percentage of prevention (inhibition of oedema) was calculated according to formula: P(%)=(Vc−Vt)/Vc×100, where Vc—paw volume in control group Vt—paw volume in test group P—Prevention in % (inhibition of oedema).

[4] = tested on: serum lipid levels (C, HDL, LDL, TG); test: Acute hyperlipidemia model (Triton WR1339); format: in vivo, Wistar rats; settings: serum 24 h
Procedure: Male Wistar rats with body mass of 250-270 g were used. Animals were held in groups of 6-8 in climatized rooms at 22±1° C., relative humidity 60±5%, and 12/12-hour light/dark cycle with free access to water and feed. […] The solution of test substances or water was introduced to control and TR group animals p.o. one hour before and 20 hours after the introduction of TR as described below.
Blood for biochemical analysis was collected on the next day (24 hours after the injection of TR) by heart punction under ether narcosis. Serum was separated by centrifugation and analyzed for total cholesterol, HDL, LDL and TG levels by commercial kits.

[5] = tested on: blood flow in the right ear artery; test: Cutaneous vasodilatation caused by nicotinic acid, ear artery blood flow; format: in vivo, Wistar rats; settings: maximal change to baseline
Procedure: Model. […] Blood pressure was measured in left carotid artery, ECG recorded by standard II lead. […] Blood flow, ECG and arterial pressure were registered by AD Instruments PowerLab systems and stored in computer for further processing. […] The average blood flow data for each animal were calculated taking into account the average blood pressure and compared with initial and control. […] Statistics.

rat ear skin temperature = test: Ear skin temperature rise caused by NA, p.o. administration; format: in vivo, Wistar rats; settings: for Max incr. %: NA alone = 100
Procedure: Male Wistar rats (280-330 g) were used. Animals were held in groups of 6 in climatized rooms at 22±1° C., relative humidity 60±5%, and 12/12-hour light/dark cycle with free access to drinking water and feed (R3—Lactamin AB, Sweden). For registration of changes in skin temperature of intact rats contactless temperature recording method was used (Papaliodis D et al, Br J Pharmacol 2008; 153:1382-1387). Temperature measurements were performed with a hand-held infrared thermometer (Model Proscan 510, TFA-Dostman). Animals were habituated to handling and to the infrared probe for 3 days before use. Temperature readings from the dorsal side of each ear were recorded without anaesthesia at beginning and during experiment. The ear temperature was measured every 5 min. for a period of up to 60 min. The animals were returned to their cages between measurements. NA, MD and MASA were dissolved in saline and pH was corrected immediately before usage. LA (MK 0524, Cayman Chemicals) was first dissolved in DMSO and then freshly diluted with 0.9% NaCl, on each day of the experiment. The rate of NA and LA combination was based on Summary of Product Characteristics for Tredaptive™ (nicotinic acid/laropiprant) 1000 mg/20 mg modified-release tablets.
9.2.3. Investigation of the Effect of MASA/NA and MD/NA Combination on Skin Temperature at Simultaneous or 45 Min Advance p.o. Administration

## CC(=O)Oc1ccccc1C(=O)O [ASA, acetylsalicylic acid]
[1]; 50 mg/kg p.o.
  Latent period at 30 min after introduction of test substance: 5.4 ± 0.46 s
  Latent period at 60 min after introduction of test substance: 9.7 ± 1.05 s
[2]; 50 mg/kg p.o. 2 h after pyrogenal
  Rectal temperature at 30 minutes after treatment: 36.51 ± 0.15*^$ ° C.
[3]; 10 mg/kg daily p.o.
  Dimensions of ankle joint on Day 14: 7.2 ± 0.12 mm
  Dimensions of ankle joint on Day 28: 6.8 ± 0.14 mm
  Paw volume on Day 14: 2.53 ± 0.10 mL
  Paw volume on Day 28: 2.08 ± 0.12 mL
  Prevention %, paw volume Day 14: −7%
  Prevention %, paw volume Day 28: 7%
[3]; 100 mg/kg daily p.o.
  Dimensions of ankle joint on Day 14: 6.9 ± 0.15 mm
  Dimensions of ankle joint on Day 28: 7.1 ± 0.16 mm
  Paw volume on Day 14: 2.35 ± 0.14 mL
  Paw volume on Day 28: 1.52 ± 0.07 mL
  Prevention %, paw volume Day 14: 3%
  Prevention %, paw volume Day 28: 32%
[4]; 45 mg/kg p.o. 1 h before and 20 h after TR 250 mg/kg
  C: 381.0 ± 30.3 mg/dL
[4]; 45 mg/kg p.o., TR 250 mg/kg
  HDL: 62.8 ± 10.9 mg/dL
  LDL: 307.4 ± 37.8 mg/dL
  TG: 973 ± 82.7 mg/dL
[4]; 90 mg/kg p.o., TR 250 mg/kg
  C: 288.1 ± 23.5 mg/dL
  HDL: 60.0 ± 7.4 mg/dL
  LDL: 219.1 ± 23.9 mg/dL
  TG: 791 ± 73.9 mg/dL

## CC(=O)Oc1ccccc1C(=O)[O-].C[N+](C)(C)NCCC(=O)O [MASA, 3-(trimethylammonioamino)propanoate Acetylsalicylic Acid Addition Salt]
[1]; 75 mg/kg p.o.
  Latent period at 30 min after introduction of test substance: 5.4 ± 0.38 s
  Latent period at 60 min after introduction of test substance: 4.6 ± 0.26 s
[1]; 150 mg/kg p.o.
  Latent period at 30 min after introduction of test substance: 9.5 ± 0.53***^&&& s
  Latent period at 60 min after introduction of test substance: 7.1 ± 0.55 s
[1]; 300 mg/kg p.o.
  Latent period at 30 min after introduction of test substance: 9.6 ± 1.12**^& s
  Latent period at 60 min after introduction of test substance: 8.6 ± 0.60 s
[2]; 75 mg/kg p.o. 2 h after pyrogenal
  Rectal temperature at 30 minutes after treatment: 36.90 ± 0.07 °C
[2]; 150 mg/kg p.o. 2 h after pyrogenal
  Rectal temperature at 30 minutes after treatment: 36.75 ± 0.09^#$ ° C.
[2]; 300 mg/kg p.o. 2 h after pyrogenal
  Rectal temperature at 30 minutes after treatment: 36.40 ± 0.11*^$$% ° C.
[3]; 25 mg/kg daily p.o.
  Dimensions of ankle joint on Day 14: 7.0 ± 0.14 mm
  Dimensions of ankle joint on Day 28: 6.7 ± 0.15 mm
  Paw volume on Day 14: 2.20 ± 0.21 mL
  Paw volume on Day 28: 1.32 ± 0.12^#&&$ ml
  Prevention %, paw volume Day 14: 9%
  Prevention %, paw volume Day 28: 41%
[3]; 100 mg/kg daily p.o.
  Dimensions of ankle joint on Day 14: 7.0 ± 0.13 mm
  Dimensions of ankle joint on Day 28: 6.6 ± 0.16^#@$ mm
  Paw volume on Day 14: 2.07 ± 0.17^& ml
  Paw volume on Day 28: 1.22 ± 0.08^#&&&@$ ml
  Prevention %, paw volume Day 14: 15%
  Prevention %, paw volume Day 28: 45%
[3]; 200 mg/kg daily p.o.
  Dimensions of ankle joint on Day 14: 6.8 ± 0.10^#& mm
  Dimensions of ankle joint on Day 28: 6.9 ± 0.11 mm
  Paw volume on Day 14: 2.13 ± 0.11^& ml
  Paw volume on Day 28: 1.7 ± 0.09^#&@ ml
  Prevention %, paw volume Day 14: 12%
  Prevention %, paw volume Day 28: 24%
[4]; 75 mg/kg p.o., TR 250 mg/kg
  C: 341.9 ± 16.3 mg/dL
  HDL: 68.1 ± 8.7 mg/dL
  LDL: 270.1 ± 12.8 mg/dL
  TG: 861 ± 105.7 mg/dL
[4]; 150 mg/kg p.o., TR 250 mg/kg
  C: 249.6 ± 22.2**^$& mg/dl and 249.6 ± 22.2**^$ mg/dl and 249.6 ± 22.2**^& mg/dl
  HDL: 58.2 ± 8.1 mg/dL
  LDL: 182.4 ± 19.6**^$& mg/dl and 182.4 ± 19.6**^$ mg/dl and 182.4 ± 19.6**^& mg/dl
  TG: 668 ± 104.4**^$& mg/dl and 668 ± 70.9**^$ mg/dl and 668 ± 70.9**^& mg/dl
[4]; 300 mg/kg p.o., TR 250 mg/kg
  C: 219.0 ± 16.7**^$#& mg/dl
  HDL: 56.3 ± 8.6 mg/dL
  LDL: 158.6 ± 19.4**^$#& mg/dl
  TG: 548 ± 73.2***^&$# mg/dl
[5]; 45 mg/kg s.c.
  Changes in blood flow, %: 8.04 ± 2.02^$ %
Rat ear skin temperature; MASA 150 mg/kg p.o. alone
  Temp. 15 min: 29.9 ± 0.33^$$ ° C.
  Temp. 30 min: 29.5 ± 0.35^$$$ ° C.
  Temp. 45 min: 29.6 ± 0.39^$$ ° C.
  Max incr. %: 6%

## C[N+](C)(C)NCCC(=O)[O-].O.O [MD, 3-(Trimethylammonioamino)propanoate dihydrate]
[1]; 100 mg/kg p.o.
  Latent period at 30 min after introduction of test substance: 9.5 ± 0.68***^&& s
  Latent period at 60 min after introduction of test substance: 8.3 ± 0.53 s
[2]; 100 mg/kg p.o. 2 h after pyrogenal
  Rectal temperature at 30 minutes after treatment: 37.10 ± 0.14 °C
[3]; 100 mg/kg daily p.o.
  Dimensions of ankle joint on Day 14: 7.0 ± 0.13 mm
  Dimensions of ankle joint on Day 28: 7.0 ± 0.13 mm
  Paw volume on Day 14: 2.60 ± 0.21 mL
  Paw volume on Day 28: 1.93 ± 0.13 mL
  Prevention %, paw volume Day 14: −7%
  Prevention %, paw volume Day 28: 13%
[4]; 150 mg/kg p.o., TR 250 mg/kg
  C: 345.6 ± 34.1 mg/dL
  HDL: 63.8 ± 9.3 mg/dL
  LDL: 273.9 ± 31.6 mg/dL
  TG: 1022 ± 80.7 mg/dL
Rat ear skin temperature; MD 100 mg/kg p.o. alone
  Temp. 15 min: 30.1 ± 0.39^$$ ° C.
  Temp. 30 min: 29.8 ± 0.38^$$$ ° C.
  Temp. 45 min: 30.0 ± 0.34^$$ ° C.
  Max incr. %: 6%

## O=C(O)c1cccnc1 [NA, nicotinic acid]
[4]; 50 mg/kg p.o., TR 250 mg/kg
  C: 327.5 ± 38.4 mg/dL
  HDL: 66.5 ± 14.6 mg/dL
  LDL: 246.3 ± 32.5 mg/dL
  TG: 591 ± 43.3 mg/dL
[5]; 15 mg/kg s.c.
  Changes in blood flow, %: 55.75 ± 11.5 %
Rat ear skin temperature; NA 40 mg/kg p.o.
  Temp. 15 min: 32.3 ± 0.46 °C
  Temp. 30 min: 33.1 ± 0.41 °C
  Temp. 45 min: 32.4 ± 0.48 °C
  Max incr. %: 100%
